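48-hour exposure; five concentrations; linearly interpolated endpoints. Abbreviation: GI50, concentration required for 50% inhibition of growth.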 Activity calls are given as the source filed them. Rule as the data show it: active = GI50 up to about 1.1 µM and inactive = higher.
Legend:
Assay in all cases: NCI anticancer screen, dose series, 48 h
[1] = tested on: NCI-H226
[2] = tested on: Hs-578T
[3] = tested on: HT-29
[4] = tested on: RXF 393
[5] = tested on: MDA-N
[6] = tested on: UACC-62
[7] = tested on: MDA-MB-435
[8] = tested on: SN12C
[9] = tested on: Malme-3M
[10] = tested on: 786-0
[11] = tested on: SK-MEL-5
[12] = tested on: NCI-H23
[13] = tested on: EKVX
[14] = tested on: HCC 2998
[15] = tested on: KM12
[16] = tested on: OVCAR-3
[17] = tested on: CAKI-1
[18] = tested on: K562
[19] = tested on: OVCAR-5
[20] = tested on: NCI-H460

Measured: GI50

Cc1ccc(C(=C2Sc3ccccc3S2)C(=C2Sc3ccccc3S2)c2ccc(C)s2)s1
inactive: [1] > 100 µM | [2] > 100 µM | [3] > 100 µM | [4] > 100 µM | [5] > 100 µM | [6] > 100 µM | [7] > 100 µM | [8] > 100 µM | [9] > 100 µM | [10] > 100 µM | [11] > 100 µM | [12] > 100 µM | [13] > 100 µM | [14] > 100 µM | [15] > 100 µM | [16] > 100 µM | [17] > 100 µM | [18] > 100 µM | [19] > 100 µM

CC1(C)Oc2ccc3c(=O)cc(-c4ccccc4)oc3c2C1C(=O)O (configuration not stated)
inactive: [1] > 100 µM | [2] > 100 µM | [3] > 100 µM | [4] > 100 µM | [5] > 100 µM | [6] > 100 µM | [7] > 100 µM | [8] > 100 µM | [9] > 100 µM | [10] > 100 µM | [11] > 100 µM | [12] > 100 µM | [13] > 100 µM | [14] > 100 µM | [16] > 100 µM | [17] > 100 µM | [18] > 100 µM | [19] > 100 µM

CC[C@H]1C[C@@H](O)[C@@H]2[C@H](O)[C@H](O)CN2C1
inactive: [1] > 100 µM | [2] > 100 µM | [3] > 100 µM | [5] > 100 µM | [7] > 100 µM | [8] > 100 µM | [9] > 100 µM | [10] > 100 µM | [11] > 100 µM | [20] > 100 µM | [13] > 100 µM | [14] > 100 µM | [15] > 100 µM | [16] > 100 µM | [18] > 100 µM | [19] > 100 µM

Cc1cn(Cc2cccc(C3=NCCCN3)c2)c(=O)n(Cc2cccc(C3=NCCCN3)c2)c1=O
inactive: [2] > 100 µM | [5] > 100 µM | [6] > 100 µM | [7] > 100 µM | [8] 25.4 µM | [9] > 100 µM | [10] > 100 µM | [11] > 100 µM | [20] > 100 µM | [12] > 100 µM | [13] > 100 µM | [14] > 100 µM | [15] > 100 µM | [16] > 100 µM | [17] > 100 µM | [18] > 100 µM | [19] > 100 µM

COc1cc2oc3c(c(=O)c2c(O)c1/C=C/C(C)C)CCC(C)(C)Oc1cc(O)ccc1-3
inactive: [2] 10.4 µM | [3] 7.13 µM | [4] 11.5 µM | [5] 13 µM | [6] 15.6 µM | [7] 16.1 µM | [8] 13.6 µM | [9] 20 µM | [10] 14.9 µM | [11] 18.7 µM | [20] 8.41 µM | [12] 16 µM | [13] 18.1 µM | [14] 14.4 µM | [15] 7.41 µM | [16] 15.6 µM | [17] 16.5 µM | [18] 4.32 µM | [19] 16.6 µM

COc1ccc(C2=NN(C(=O)c3ccc(Cl)cc3)C(O)(c3cc(F)c(Cl)cc3Cl)C2)cc1OC (configuration not stated)
inactive: [1] > 100 µM | [2] 24 µM | [3] 4.29 µM | [4] 6.17 µM | [5] 15.5 µM | [7] 13.2 µM | [10] 17.8 µM | [11] 33.1 µM | [20] 9.14 µM | [12] 47.1 µM | [13] 27.7 µM | [14] 8.24 µM | [15] 8.15 µM | [16] 41.8 µM | [17] 18.6 µM | [18] 5.82 µM | [19] > 100 µM

O=S(=O)(O)CCCC1S(=O)(=O)OCCOS1(=O)=O
inactive: [1] > 100 µM | [2] > 100 µM | [3] > 100 µM | [4] > 100 µM | [5] > 100 µM | [6] > 100 µM | [7] > 100 µM | [9] > 100 µM | [10] > 100 µM | [11] > 100 µM | [20] > 100 µM | [12] > 100 µM | [13] > 100 µM | [14] > 100 µM | [15] > 100 µM | [16] > 100 µM | [17] > 100 µM | [19] > 100 µM

FC(F)(F)c1ccc2c(c1)nc(-c1ccccc1)n2CC1CCCN2CCCCC12 (configuration not stated)
inactive: [1] 20.8 µM | [2] 16.8 µM | [3] 16.1 µM | [4] 19 µM | [5] 17.6 µM | [6] 16.6 µM | [7] 18.3 µM | [8] 18.6 µM | [9] 13.7 µM | [10] 15.7 µM | [11] 14.9 µM | [20] 19.6 µM | [13] 29.2 µM | [14] 16 µM | [15] 19.2 µM | [16] 23.5 µM | [17] 17.3 µM | [18] 21.1 µM
